Data published in patent publication US6964975B2, “Isoxazole and thiazole compounds and use thereof as medicine” (Kirin Beer Kabushiki Kaisha, priority 2000, dated 2005).

molecular target: T1, human EDG-2 (Homo sapiens, UniProt Q92633); experiment: Inhibitory activity on LPA-induced elevation of intracellular Ca2+ level; assay type: cell-based; conditions: 50% inhibition of elevation of intracellular Ca2+ level by LPA, human EDG-2/HepG2 cells, fura-2
T1 construct: cDNA of the cloned human EDG-2 was introduced into pEFneo, which is an animal expression vector; expressed in transfected cells; host or cells: HepG2
From the text: The human EDG-2 expression plasmid was introduced into HepG2 cells by electroporation. After the introduction, culturing was continued while exchanging selective media every 3 to 4 days, thereby obtaining an expressed colony. Regarding these cells, Ca-influx and cell-proliferation by LPA, level of [^3H] LPA binding and the like were inspected to select a cell line which highly expresses human EDG-2 (human EDG-2/HepG2).
Human EDG-2/HepG2 cells were washed and then suspended in 0.1% BSA (bovine serum albumin)-containing HEPES buffer. A fluorescent indicator, fura-2/AM (Wako Pure Chemical Industries, Ltd.), was added, and the mixture was shaken at room temperature for 45 minutes so that the indicator is included in the cell. Cells were washed again and then suspended in 0.1% BSA-containing HEPES buffer, and intracellular Ca^2+ level was assayed using FDSS2000 (Hamamatsu Photonics). […] Each test compound was added to the cell suspension followed by the addition of LPA, thereby examining the inhibitory activity of the test compound on the function of LPA for elevating the intracellular Ca level. […] The lower the IC50 value, the higher the antagonistic activity on the LPA receptor.

T1 sequence (Q92633 whole entry): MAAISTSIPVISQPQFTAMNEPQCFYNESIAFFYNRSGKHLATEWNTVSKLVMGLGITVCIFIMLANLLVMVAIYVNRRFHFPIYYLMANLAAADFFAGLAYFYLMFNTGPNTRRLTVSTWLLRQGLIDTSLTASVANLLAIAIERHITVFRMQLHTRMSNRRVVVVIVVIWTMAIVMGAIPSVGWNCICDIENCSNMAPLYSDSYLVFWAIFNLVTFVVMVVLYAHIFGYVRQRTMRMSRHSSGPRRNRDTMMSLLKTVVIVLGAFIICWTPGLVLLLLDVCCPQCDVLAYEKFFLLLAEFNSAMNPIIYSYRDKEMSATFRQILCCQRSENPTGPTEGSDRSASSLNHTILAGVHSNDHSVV

IC50 | Compound
10 to 30 µM | COc1ccc(-c2onc(C)c2NC(=O)OC(C)c2ccccc2Cl)cc1 (stereo not drawn) [Compound 50, 1-(2-Chlorophenyl)ethyl N-[5-(4-methoxyphenyl)-3-methyl-4-isoxazolyl]carbamate]
10 to 30 µM | Cc1noc(-c2ccccc2Br)c1NC(=O)OC(C)c1ccccc1Cl (stereo not drawn) [Compound 51, 1-(2-Chlorophenyl)ethyl N-[5-(2-bromophenyl)-3-methyl-4-isoxazolyl]carbamate]
30 µM | Cc1noc(-c2ccc3c(c2)OCO3)c1NC(=O)OC(C)c1ccccc1Cl (stereo not drawn) [Compound 52, 1-(2-Chlorophenyl)ethyl N-[5-(1,3-benzodioxol-5-yl)-3-methyl-4-isoxazolyl]carbamate]
30 µM | Cc1noc(-c2cccc(OC(F)(F)F)c2)c1NC(=O)OC(C)c1ccccc1Cl (stereo not drawn) [Compound 53, 1-(2-Chlorophenyl)ethyl N-[3-methyl-5-[3-(trifluoromethoxy)phenyl]-4-isoxazolyl]carbamate]
10 to 30 µM | Cc1noc(-c2ccc([N+](=O)[O-])cc2)c1NC(=O)OC(C)c1ccccc1 (stereo not drawn) [Compound 54, 1-Phenylethyl N-[3-methyl-5-(4-nitrophenyl)-4-isoxazolyl]carbamate]
3 to 10 µM | Cc1noc(-c2ccc([N+](=O)[O-])cc2)c1NC(=O)OC(C)c1ccccc1Cl (stereo not drawn) [Compound 55, 1-(2-Chlorophenyl)ethyl N-[3-methyl-5-(4-nitrophenyl)-4-isoxazolyl]carbamate]
3 to 10 µM | Cc1noc(-c2cccs2)c1NC(=O)OC(C)c1ccccc1 (stereo not drawn) [Compound 56, 1-Phenylethyl N-[3-methyl-5-(2-thienyl)-4-isoxazolyl]carbamate]
3 µM | Cc1noc(-c2cccs2)c1NC(=O)OC(C)c1ccccc1Cl (stereo not drawn) [Compound 57, 1-(2-Chlorophenyl)ethyl N-[3-methyl-5-(2-thienyl)-4-isoxazolyl]carbamate]
10 µM | Cc1noc(-c2cccc([N+](=O)[O-])c2)c1NC(=O)OC(C)c1ccccc1 (stereo not drawn) [Compound 58, 1-Phenylethyl N-[3-methyl-5-(3-nitrophenyl)-4-isoxazolyl]carbamate]
3 to 10 µM | Cc1noc(-c2cccc([N+](=O)[O-])c2)c1NC(=O)OC(C)c1ccccc1Cl (stereo not drawn) [Compound 59, 1-(2-Chlorophenyl)ethyl N-[3-methyl-5-(3-nitrophenyl)-4-isoxazolyl]carbamate]
1 to 3 µM | Cc1noc(-c2ccc(F)cc2F)c1NC(=O)OC(C)c1ccccc1Cl (stereo not drawn) [Compound 60, 1-(2-Chlorophenyl)ethyl N-[5-(2,4-difluorophenyl)-3-methyl-4-isoxazolyl]carbamate]
3 to 10 µM | Cc1noc(-c2ccncc2)c1NC(=O)OC(C)c1ccccc1 (stereo not drawn) [Compound 61, 1-Phenylethyl N-[3-methyl-5-(4-pyridyl)-4-isoxazolyl]carbamate]
30 µM | Cc1noc(-c2ccc(Cl)nc2)c1NC(=O)OC(C)c1ccccc1Cl (stereo not drawn) [Compound 63, 1-(2-Chlorophenyl)ethyl N-[5-(6-chloro-3-pyridyl)-3-methyl-4-isoxazolyl]carbamate]
10 to 30 µM | CCCCc1ccc(-c2onc(C)c2NC(=O)OC(C)c2ccccc2)cc1 (stereo not drawn) [Compound 64, 1-Phenylethyl N-[5-(4-butylphenyl)-3-methyl-4-isoxazolyl]carbamate]
10 to 30 µM | CCCCc1ccc(-c2onc(C)c2NC(=O)OC(C)c2ccccc2Cl)cc1 (stereo not drawn) [Compound 65, 1-(2-Chlorophenyl)ethyl N-[5-(4-butylphenyl)-3-methyl-4-isoxazolyl]carbamate]
10 µM | Cc1ccsc1-c1onc(C)c1NC(=O)OC(C)c1ccccc1 (stereo not drawn) [Compound 66, 1-Phenylethyl N-[3-methyl-5-(3-methyl-2-thienyl)-4-isoxazolyl]carbamate]
3 to 10 µM | Cc1noc(-c2ccoc2)c1NC(=O)OC(C)c1ccccc1Cl (stereo not drawn) [Compound 68, 1-(2-Chlorophenyl)ethyl N-[5-(3-furyl)-3-methyl-4-isoxazolyl]carbamate]
3 to 10 µM | Cc1ccc(-c2onc(C)c2NC(=O)OC(C)c2ccccc2Cl)s1 (stereo not drawn) [Compound 69, 1-(2-Chlorophenyl)ethyl N-[3-methyl-5-(5-methyl-2-thienyl)-4-isoxazolyl]carbamate]
1 to 3 µM | Cc1noc(-c2cccc(CCl)c2)c1NC(=O)OC(C)c1ccccc1Cl (stereo not drawn) [Compound 70, 1-(2-Chlorophenyl)ethyl N-[5-[3-(chloromethyl)phenyl]-3-methyl-4-isoxazolyl]carbamate]
10 to 30 µM | Cc1noc(-c2c(-c3ccccc3)noc2C)c1NC(=O)OC(C)c1ccccc1Cl (stereo not drawn) [Compound 72, 1-(2-Chlorophenyl)ethyl N-[5-(3-phenyl-5-methyl-4-isoxazolyl)-3-methyl-4-isoxazolyl]carbamate]

IC50 | Compound
1 to 3 µM | Cc1noc(-c2ccc(Br)o2)c1NC(=O)OC(C)c1ccccc1Cl (stereo not drawn) [Compound 73, 1-(2-Chlorophenyl)ethyl N-[5-(5-bromo-2-furyl)-3-methyl-4-isoxazolyl]carbamate]
1 to 3 µM | Cc1noc(-c2ccc(CCl)cc2)c1NC(=O)OC(C)c1ccccc1Cl (stereo not drawn) [Compound 74, 1-(2-Chlorophenyl)ethyl N-[5-[4-(chloromethyl)phenyl]-3-methyl-4-isoxazolyl]carbamate]
3 to 10 µM | Cc1noc(-c2ccsc2)c1NC(=O)OC(C)c1ccccc1Cl (stereo not drawn) [Compound 75, 1-(2-Chlorophenyl)ethyl N-[3-methyl-5-(3-thienyl)-4-isoxazolyl]carbamate]
1 to 3 µM | CCc1noc(-c2ccccc2)c1NC(=O)OC(C)c1ccccc1Cl (stereo not drawn) [Compound 76, 1-(2-Chlorophenyl)ethyl N-(3-ethyl-5-phenyl-4-isoxazolyl)carbamate]
1 to 3 µM | CCc1noc(-c2ccc(C#N)cc2)c1NC(=O)OC(C)c1ccccc1Cl (stereo not drawn) [Compound 77, 1-(2-Chlorophenyl)ethyl N-[5-(4-cyanophenyl)-3-ethyl-4-isoxazolyl]carbamate]
30 µM | COCc1noc(-c2ccccc2)c1NC(=O)OC(C)c1ccccc1Cl (stereo not drawn) [Compound 78, 1-(2-Chlorophenyl)ethyl N-[3-(methoxymethyl)-5-phenyl-4-isoxazolyl]carbamate]
3 µM | Cc1noc(-c2ccc(COc3ccccc3)cc2)c1NC(=O)OC(C)c1ccccc1Cl (stereo not drawn) [Compound 79, 1-(2-Chlorophenyl)ethyl N-[3-methyl-5-[4-(phenoxymethyl)phenyl]-4-isoxazolyl]carbamate]
1 to 3 µM | Cc1onc(-c2ccccc2)c1NC(=O)OC(c1ccccc1)C(F)(F)F (stereo not drawn) [Compound 80, 2,2,2-Trifluoro-1-phenylethyl N-(5-methyl-3-phenyl-4-isoxazolyl)carbamate]
30 to 100 µM | C=CC(OC(=O)Nc1c(-c2ccccc2)noc1C)c1ccccc1 (stereo not drawn) [Compound 81, 1-Phenylallyl N-(5-methyl-3-phenyl-4-isoxazolyl)carbamate]
10 to 30 µM | Cc1noc(-c2ccc(COCc3ccc(F)cc3)cc2)c1NC(=O)OC(C)c1ccccc1Cl (stereo not drawn) [Compound 82, 1-(2-Chlorophenyl)ethyl N-[5-(4-[[(4-fluorobenzyl)oxy]methyl]phenyl)-3-methyl-4-isoxazolyl]carbamate]
10 µM | Cc1noc(-c2ccc(COCc3c(F)cccc3F)cc2)c1NC(=O)OC(C)c1ccccc1Cl (stereo not drawn) [Compound 83, 1-(2-Chlorophenyl)ethyl N-[5-(4-[[(2,6-difluorobenzyl)oxy]methyl]phenyl)-3-methyl-4-isoxazolyl]carbamate]
3 to 10 µM | Cc1noc(-c2ccc(COCc3ccco3)cc2)c1NC(=O)OC(C)c1ccccc1Cl (stereo not drawn) [Compound 84, 1-(2-Chlorophenyl)ethyl N-(5-[4-[(2-furylmethoxy)methyl]phenyl]-3-methyl-4-isoxazolyl)carbamate]
3 to 10 µM | Cc1noc(-c2ccc(COCc3ccoc3)cc2)c1NC(=O)OC(C)c1ccccc1Cl (stereo not drawn) [Compound 85, 1-(2-Chlorophenyl)ethyl N-(5-[4-[(3-furylmethoxy)methyl]phenyl]-3-methyl-4-isoxazolyl)carbamate]
1 to 3 µM | Cc1noc(-c2ccc(C#N)cc2)c1NC(=O)OC(c1ccccc1)C(F)(F)F (stereo not drawn) [Compound 86, 2,2,2-Trifluoro-1-phenylethyl N-[5-(4-cyanophenyl)-3-methyl-4-isoxazolyl]carbamate]
3 µM | COCc1ccc(-c2onc(C)c2NC(=O)OC(C)c2ccccc2Cl)cc1 (stereo not drawn) [Compound 87, 1-(2-Chlorophenyl)ethyl N-[5-[4-(methoxymethyl)phenyl]-3-methyl-4-isoxazolyl]carbamate]
3 to 10 µM | Cc1noc(-c2ccc(CN3CCOCC3)cc2)c1NC(=O)OC(C)c1ccccc1Cl (stereo not drawn) [Compound 88, 1-(2-Chlorophenyl)ethyl N-[3-methyl-5-[4-(morpholinomethyl)phenyl]-4-isoxazolyl]carbamate]
10 to 30 µM | Cc1noc(-c2ccc(CN3CC(C)OC(C)C3)cc2)c1NC(=O)OC(C)c1ccccc1Cl (stereo not drawn) [Compound 89, 1-(2-Chlorophenyl)ethyl N-(5-[4-[(2,6-dimethylmorpholino)methyl]phenyl]-3-methyl-4-isoxazolyl)carbamate]
10 µM | Cc1noc(-c2ccc(CNCCc3ccccn3)cc2)c1NC(=O)OC(C)c1ccccc1Cl (stereo not drawn) [Compound 90, 1-(2-Chlorophenyl)ethyl N-(3-methyl-5-[4-[([2-(2-pyridyl)ethyl]amino)methyl]phenyl]-4-isoxazolyl)carbamate]
3 to 10 µM | Cc1noc(-c2ccc(CNCc3ccco3)cc2)c1NC(=O)OC(C)c1ccccc1Cl (stereo not drawn) [Compound 93, 1-(2-Chlorophenyl)ethyl N-[5-(4-[[(2-furylmethyl)amino]methyl]phenyl)-3-methyl-4-isoxazolyl]carbamate]
